Patent US8722868B2, “Glycosyltransferase, novel glycosyltransferase gene, and novel sugar donor compound” (National University Corporation Tokyo University of …, priority 2009, dated 2014)

Assays:
[1] = target: T1, crude enzyme obtained from pink petals of a carnation (variety: "Beam Cherry") (glycosyltransferase) (Dianthus caryophyllus, UniProt E3W9M2); assay: Relative activity of crude carnation petal enzyme on each sugar donor (glycosyl transfer to cyanidin 3-glucoside, HPLC); assay type: biochemical; details: crude enzyme 61 μg, cyanidin β-glucoside 200 μM, sugar donor 500 μM, citric acid buffer pH 5.6, 30° C., 15 minutes; HPLC area of cyanidin 3,5-O-β diglucoside
T1 construct: Thus, a crude enzyme liquid was obtained; from tissue; host or cells: pink petals of carnation, variety Beam Cherry (ammonium sulfate precipitate, desalted)
T1 sequence (E3W9M2 31-502): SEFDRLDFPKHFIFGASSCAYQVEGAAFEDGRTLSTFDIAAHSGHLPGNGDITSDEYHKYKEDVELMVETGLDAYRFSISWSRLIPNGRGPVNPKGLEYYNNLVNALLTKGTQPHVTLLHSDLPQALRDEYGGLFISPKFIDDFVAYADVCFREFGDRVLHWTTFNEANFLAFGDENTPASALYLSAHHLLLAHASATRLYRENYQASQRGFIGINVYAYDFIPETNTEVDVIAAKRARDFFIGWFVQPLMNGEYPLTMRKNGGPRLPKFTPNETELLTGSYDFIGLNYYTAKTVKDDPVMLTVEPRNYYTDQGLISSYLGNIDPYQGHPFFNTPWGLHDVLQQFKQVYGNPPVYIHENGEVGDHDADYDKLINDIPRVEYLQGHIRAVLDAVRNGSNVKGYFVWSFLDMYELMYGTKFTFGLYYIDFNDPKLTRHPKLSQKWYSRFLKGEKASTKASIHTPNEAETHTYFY
Description: An enzyme reaction was carried out at 30° C. for 15 minutes in a reaction solution obtained by adding a citric acid buffer (pH 5.6) to a crude enzyme obtained from pink petals of a carnation (variety: “Beam Cherry”) (61 μg), cyanidin β-glucoside (200 μM), and a sugar donor (1-O-β-vanillyl glucose extracted from a carnation or any of synthesized 1-O-vanillyl glucose (in the α or β form), 1-O-isovanillyl glucose (in the α or β form), and 1-O-galloyl glucose (in the α or β form)) (500 μM) to a final volume of 30 μl. The reaction was terminated by adding a 20% phosphoric acid aqueous solution to the reaction liquid so as to result in a final phosphoric acid concentration of 1%, followed by centrifugation. The obtained supernatant was subjected to separation using an HPLC (Chromolith Speed ROD; 4.6×50 mm; Merck) with a linear gradient (5 minutes) of 18% to 28% liquid B containing eluent A (a 1.5% phosphoric acid aqueous solution) and eluent B (a 90% methanol aqueous solution) (flow rate: 3.0 ml/min; 520 nm), followed by analysis. The relative activity of the enzyme on each sugar donor was calculated based on the HPLC chromatogram area of a reaction product (cyanidin 3,5-O-β diglucoside) at a wavelength of 505 nm.

[2] = target: T2, enzyme purified from pink petals of a carnation (variety: "Beam Cherry") (glycosyltransferase) (Dianthus caryophyllus, UniProt E3W9M2); assay: Relative activity of glycosyltransferase purified from carnation on each sugar donor (HPLC); assay type: biochemical; details: purified enzyme 135 ng, cyanidin 3-glucoside 200 μM, sugar donor 500 μM, citric acid buffer pH 5.6, 30° C., 15 minutes; HPLC area of cyanidin 3,5-O-β-diglucoside
T2 construct: the enzyme comprising 502 amino acid residues was translated, followed by amino acid removal via processing; from tissue; host or cells: petals of carnation, variety Beam Cherry
T2 sequence (E3W9M2 31-502): T1 sequence (E3W9M2 31-502)
Description: An enzyme reaction was carried out at 30° C. for 15 minutes using an enzyme (135 ng) purified from pink petals of a carnation (variety: “Beam Cherry”) by the method described in Example 2 ((1) and (2)), cyanidin 3-glucoside (200 μM), and a sugar donor (1-O-β-D-vanillyl glucose or any of 1-O-β-D-p-coumaryl glucose, 1-O-β-D-caffeyl glucose, 1-O-β-D-feruloyl glucose, and 1-O-β-D-sinapoyl glucose that had been enzymatically synthesized according to the method described in Matsuba Y et al., Plant Biotechnology vol. 25, No. 4 (2008) pp. 369-375) (500 μM) in a reaction solution adjusted to 30 μl with the addition of a citric acid buffer (pH 5.6). A 20% phosphoric acid aqueous solution was added to the reaction liquid so as to result in a final phosphoric acid concentration of 1%. Thus, the reaction was terminated, followed by centrifugation. The resulting supernatant was subjected to separation using a HPLC column (Chromolith SpeedROD, 4.6×50 mm, Merck), eluent A (a 1.5% phosphoric acid aqueous solution), and eluent B (a 90% methanol aqueous solution) with a linear gradient of 18% to 28% liquid B (flow rate: 3.0 ml/min, 520 nm) (5 minutes), followed by analysis. The relative activity of the enzyme on each sugar donor was determined by calculating the area of the reaction product (cyanidin 3,5-O-β-diglucoside) on an HPLC chromatogram at a wavelength of 505 nm.

1-O-α-vanillyl glucose [1-O-α-vanillyl glucose (synthetic)]
Relative activity of an enzyme on a sugar donor (when synthetic 1-O-β-vanillyl glucose is set as 100) [1]: 1.7

COc1ccc(C(=O)O[C@H]2O[C@H](CO)[C@@H](O)[C@H](O)[C@H]2O)cc1O [1-O-α-isovanillyl glucose (synthetic), 1-O-α-isovanillyl glucose]
Relative activity of an enzyme on a sugar donor (when synthetic 1-O-β-vanillyl glucose is set as 100) [1]: Not detectable

O=C(/C=C/c1ccc(O)c(O)c1)OC1OC(CO)C(O)C(O)C1O [1-O-β-D-caffeyl glucose (synthetic), 1-O-β-caffeyl glucose]
Relative activity of an enzyme on a sugar donor (when synthetic 1-O-β-vanillyl glucose is set as 100) [2]: 464

COc1cc(/C=C/C(=O)OC2OC(CO)C(O)C(O)C2O)ccc1O [1-O-β-D-feruloyl glucose (synthetic), 1-O-β-feruloyl glucose]
Relative activity of an enzyme on a sugar donor (when synthetic 1-O-β-vanillyl glucose is set as 100) [2]: 1320

O=C(/C=C/c1ccc(O)cc1)OC1OC(CO)C(O)C(O)C1O [1-O-β-D-p-coumaryl glucose (synthetic), 1-O-β-p-coumaryl glucose]
Relative activity of an enzyme on a sugar donor (when synthetic 1-O-β-vanillyl glucose is set as 100) [2]: 350

COc1cc(/C=C/C(=O)OC2OC(CO)C(O)C(O)C2O)cc(OC)c1O [1-O-β-D-sinapoyl glucose (synthetic), 1-O-β-sinapoyl glucose]
Relative activity of an enzyme on a sugar donor (when synthetic 1-O-β-vanillyl glucose is set as 100) [2]: 793

O=C(O[C@@H]1O[C@H](CO)[C@@H](O)[C@H](O)[C@H]1O)c1cc(O)c(O)c(O)c1 [1-O-β-galloyl glucose (synthetic), 1-O-β-galloyl glucose]
Relative activity of an enzyme on a sugar donor (when synthetic 1-O-β-vanillyl glucose is set as 100) [1]: 2.4

COc1ccc(C(=O)OC2OC(CO)C(O)C(O)C2O)cc1O (stereo not drawn) [1-O-β-isovanillyl glucose (synthetic), 1-O-β-isovanillyl glucose]
Relative activity of an enzyme on a sugar donor (when synthetic 1-O-β-vanillyl glucose is set as 100) [1]: 23.1
